According to US20160331754A1, “THERAPIES FOR TREATING CANCERS” (GILEAD SCIENCES, INC., priority 2014, published 2016):
Several values for one entry are separate records, joined by “and”; a condition that tells them apart may be missing. Equal values may be shown once.

Legend:
[1] = system: p-AKT Ser473; assay: Flow cytometry, TPO-activated AKT phosphorylation in CD34+ progenitor cells from MF patients; format: cell-based, human
Method: (§1) PBMCs were isolated from whole blood of myelofibrosis (MF) patients who had not received treatments (i.e. naïve patients) or received ruxolitinib (i.e. rux-treated patients). The cells were treated with 0.02, 0.2, or 2.0 μM of Compound B or vehicle (0.1% DMSO in 0.1% FBS/RPMI) for 2 hours at 37° C. The cells were then fixed, permeabilized, and stained for FACS analysis. Antibodies specific to p-AKT Ser473 and pS6RP Ser235/236 were used to detect AKT phosphorylation (p-AKT) and S6RP phosphorylation (p-S6RP) in CD34^+/CD3^−/CD14^−/CD19/CD66^− (BD Biosciences) gated cells using flow cytometry. The percentage of basal (i.e. untreated with TPO) AKT and S6RP phosphorylation were normalized to vehicle control. A two-tailed paired t-test (GraphPad Prism) was used to calculate p-values. Values of p<0.05 were considered significant.
(§2) Also, PBMC cells from naïve or ruxolitinib treated patients were isolated and treated with Compound B and with TPO as described above. The percentage of TPO-activated AKT and S6RP phosphorylation were normalized to those of TPO-treated vehicle (“no TPO” values in Table 4). […] Also, the inhibition to PI3K signaling was dose-dependent to Compound B.
(§3) Similar studies were conducted with PI3K inhibitors Compounds C and D. PBMC from MF patients had received ruxolitinib (rux) and MF patient had received Compound A. The cells were treated with Compounds C or D at 0, 20.0, 200.0, 2000.0 nM for 2 hours at 37° C. Cells were treated with TPO for 10 minutes. The percentage of basal p-AKT and p-S6RP levels were normalized to vehicle control and those of TPO-treated were normalized to TPO-treated vehicle control. The PI3Kδ inhibitors Compound C is referred by the chemical names of (S)-2-(1-((9H-purin-6-yl)amino)ethyl)-6-fluoro-3-phenylquinazolin-4(3H)-one.

[2] = system: pS6RP Ser235/236; assay: Flow cytometry, basal S6RP phosphorylation in CD34+ progenitor cells from MF patients; format: cell-based, human; conditions: for effect on p-S6RP in MF progenitor cells: basal and TPO-treated, dose dependent
Method: as §1, §3

[3] = system: p-AKT Ser473; assay: Flow cytometry, basal AKT phosphorylation in CD34+ progenitor cells from MF patients; format: cell-based, human; conditions: for effect on p-AKT in MF progenitor cells: basal and TPO-treated, dose dependent
Method: as §1, §3

[4] = system: pS6RP Ser235/236; assay: Flow cytometry, TPO-activated S6RP phosphorylation in CD34+ progenitor cells from MF patients; format: cell-based, human
Method: as §1, §2, §3

[5] = administered once a day; cited from earlier work
[6] = system: CLL; conditions: patients with recurrent CLL; cited from earlier work
[7] = system: WIL2-S; assay: ADCC LDH release assay, purified NK cells against WIL2-S target cells; format: cell-based, human; conditions: for Percentage of ADCC, Palivizumab ADCC: Palivizumab (isotype control) 10 μg/mL; for Percentage of ADCC, obinutuzumab ADCC: obinutuzumab 10 μg/mL
[8] = system: Ri-1 DLBCL cells; assay: Cell death assay (Annexin V/7AAD) in Ri-1 DLBCL cells; format: cell-based; conditions: 0 nM Compound B, 3 days
Method: (§4) Further, whole blood (WB) autologous B-cell depletion and cell-death induction assays were conducted as described in Mossner et al., Blood 115:4393-402, 2010. For cell death assay: Ri-1 DLBCL cells were seeded at 15,000 cells/well in 96-well plates. Cells were preincubated with Compound B or DMSO for 1 hour before the addition of antibody. Plates were incubated at 37° C. in a humidified CO2 chamber for 3 days. Cells were washed once with PBS and treated with Accutase for 15 minutes before being stained with Guava Nexin® reagent and analyzed on the Guava EasyCyte flow cytometer (Merck Millipore).
After 3 days of incubation, cell death was assessed by Annexin V/7AAD staining.

[9] = system: autologous B cells; assay: Whole blood (WB) autologous B-cell depletion assay; format: cell-based
Method: as §4
The percentage of deplete autologous B cells in a whole blood assay may represent the antibody potency.

[10] = 20 nM, Compound A-treated Cells
[11] = 200 nM, Compound A-treated Cells
[12] = 2000 nM, Compound A-treated Cells

## C[C@H](Nc1ncnc2[nH]cnc12)c1nc2ccc(F)cc2c(=O)n1-c1ccccc1 [Compound C, (S)-2-(1-((9H-purin-6-yl)amino)ethyl)-6-fluoro-3-phenylquinazolin-4(3H)-one]
[1]; [10]
  percentage of pAKT, TPO: 65%
[1]; 20 nM, Rux-treated Cells, TPO-treated vehicle=100
  percentage of pAKT, TPO: 65%
[1]; [11]
  percentage of pAKT, TPO: 59%
[1]; 200 nM, Rux-treated Cells
  percentage of pAKT, TPO: 53%
[1]; [12]
  percentage of pAKT, TPO: 43%
[1]; 2000 nM, Rux-treated Cells
  percentage of pAKT, TPO: 24%
[2]; [10]
  percentage of pS6, Basal: 82%
[2]; 20 nM, Rux-treated Cells
  percentage of pS6, Basal: 65%
[2]; [11]
  percentage of pS6, Basal: 75%
[2]; 200 nM, Rux-treated Cells
  percentage of pS6, Basal: 59%
[2]; [12]
  percentage of pS6, Basal: 53%
[2]; 2000 nM, Rux-treated Cells
  percentage of pS6, Basal: 43%
[2]
  effect on p-S6RP in MF progenitor cells: inhibited
[3]; 20 nM 2 h, Rux-treated Cells, vehicle=100
  percentage of pAKT, Basal: 88%
[3]; [10]
  percentage of pAKT, Basal: 89%
[3]; [11]
  percentage of pAKT, Basal: 82%
[3]; 200 nM, Rux-treated Cells
  percentage of pAKT, Basal: 90%
[3]; [12]
  percentage of pAKT, Basal: 75%
[3]; 2000 nM, Rux-treated Cells
  percentage of pAKT, Basal: 75%
[3]
  effect on p-AKT in MF progenitor cells: inhibited
[4]; [10]
  percentage of pS6, TPO: 66%
[4]; 20 nM, Rux-treated Cells
  percentage of pS6, TPO: 84%
[4]; [11]
  percentage of pS6, TPO: 70%
[4]; 200 nM, Rux-treated Cells
  percentage of pS6, TPO: 62%
[4]; [12]
  percentage of pS6, TPO: 36%
[4]; 2000 nM, Rux-treated Cells
  percentage of pS6, TPO: 42%

## Cc1cnc(Nc2ccc(OCCN3CCCC3)cc2)nc1Nc1cccc(S(=O)(=O)NC(C)(C)C)c1 [TG101348]
[5]
  maximum tolerated dose (MTD): 680 mg/day

## alemtuzumab: monoclonal antibody, alternative immunotherapeutic for CLL
[6]
  median progression-free survival (PFS): 4.7 months

## C[C@H](Nc1ncnc2[nH]cnc12)c1nc2ccccc2c(=O)n1-c1c(F)cccc1F [Compound D, (S)-2-(1-((9H-purin-6-yl)amino)ethyl)-3-(2,6-difluorophenyl)quinazolin-4(3H)-one]
[2]
  effect on p-S6RP in MF progenitor cells: inhibited
[3]
  effect on p-AKT in MF progenitor cells: inhibited

## ofatumumab: monoclonal antibody, alternative immunotherapeutic for CLL
[6]
  median progression-free survival (PFS): 5.8 months

## Palivizumab: used as an isotype control [reference compound]
[7]; E:T 1:1
  Percentage of ADCC, Palivizumab ADCC: 3% and 4% and −1% and 2%
[7]; E:T 3:1
  Percentage of ADCC, Palivizumab ADCC: 8% and 11% and 10% and 6% and 4% and 5% and 7%
[7]; E:T 30:1
  Percentage of ADCC, Palivizumab ADCC: 31% and 37% and 36% and 34% and 39% and 25% and 29% and 24%
[8]; Palivizumab 10 μg/mL
  Percentage of total Annexin V+ cells: 13% and 19% and 14% and 21%

## obinutuzumab: glycoengineered, type II, anti-CD20 antibody
[9]; obinutuzumab 0.06 ng/mL alone
  Percentage of B-cell depletion in WB: −4% and −2% and 0%
[9]; obinutuzumab 8 ng/mL alone
  Percentage of B-cell depletion in WB: 34% and 38% and 55% and 45%
[9]; obinutuzumab 40 ng/mL alone
  Percentage of B-cell depletion in WB: 43% and 49% and 60% and 65%
[9]; obinutuzumab 200 ng/mL alone
  Percentage of B-cell depletion in WB: 50% and 69%
[9]; obinutuzumab 1000 ng/mL alone, donors S1-S4
  Percentage of B-cell depletion in WB: 52% and 63% and 71% and 56%
[9]; obinutuzumab 10 μg/mL, Compound B 0 nM
  Percentage of B-cell depletion WB: 57% and 71% and 65%
[7]; E:T 10:1
  Percentage of ADCC, obinutuzumab ADCC: 74% and 73% and 69% and 67% and 71%
[7]; E:T 30:1
  Percentage of ADCC, obinutuzumab ADCC: 81% and 72% and 80% and 84% and 69% and 89% and 88%
[8]; Obinutuzumab 0.1 μg/mL
  Percentage of total Annexin V+ cells: 30% and 36% and 35% and 37%
[8]; Obinutuzumab 1 μg/mL
  Percentage of total Annexin V+ cells: 45% and 50% and 49% and 46%
[8]; Obinutuzumab 10 μg/mL
  Percentage of total Annexin V+ cells: 54% and 49% and 56%
